According to patent US20250114460A1, “NOVEL PLK1 DEGRADATION INDUCING COMPOUND” (UPPTHERA, INC., priority 2021, published 2025):

Molecular target: T1, PLK1 (Homo sapiens, UniProt P53350)
T1 construct: endogenous in cells; host or cells: HeLa LgBit (Plk1-HiBit KI): HeLa stably expressing LgBit, with a CRISPR/Cas9 knock-in of HiBit at the endogenous PLK1 locus
Assay: Luciferase assay for PLK1 in HeLa LgBit (Plk1-HiBit KI) cell line
Type: cell-based
Conditions: 300 nM compound, luminescence after 9 hours
How it was run: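 Luminescence, followed in real time after adding compound at 300 nM and Endurazine substrate, is reported relative to DMSO-treated wells. Cells are a HeLa LgBit line with a Plk1-HiBit knock-in, synchronized by 2 mM thymidine for 24 h, released, and cultured 18 h before treatment.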

T1 sequence (P53350 whole entry): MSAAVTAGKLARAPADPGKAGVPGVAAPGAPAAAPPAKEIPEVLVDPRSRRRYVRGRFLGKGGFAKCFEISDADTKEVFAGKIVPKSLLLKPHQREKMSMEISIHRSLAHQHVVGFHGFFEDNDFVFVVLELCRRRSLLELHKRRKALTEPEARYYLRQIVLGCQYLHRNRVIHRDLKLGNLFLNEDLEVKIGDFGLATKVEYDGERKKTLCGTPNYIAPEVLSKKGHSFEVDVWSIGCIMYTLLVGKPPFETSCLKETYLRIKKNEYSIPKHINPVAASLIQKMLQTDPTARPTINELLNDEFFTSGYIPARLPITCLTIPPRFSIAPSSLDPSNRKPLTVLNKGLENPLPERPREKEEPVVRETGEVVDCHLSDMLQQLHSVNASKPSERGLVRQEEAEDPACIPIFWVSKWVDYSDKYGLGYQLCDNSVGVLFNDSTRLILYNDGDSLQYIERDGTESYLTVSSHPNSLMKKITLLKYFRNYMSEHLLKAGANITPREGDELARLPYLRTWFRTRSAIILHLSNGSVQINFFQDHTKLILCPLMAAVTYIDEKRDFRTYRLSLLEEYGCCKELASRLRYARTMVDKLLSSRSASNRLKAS

For COc1cc(C(=O)NC2CCCC(N(C)C3CCN(c4cccc5c4C(=O)N(C4CCC(=O)NC4=O)C5=O)CC3)C2)ccc1Nc1ncc2c(n1)N(C(C)C)CC(F)(F)C(=O)N2C (stereo not drawn) [Compound 166, 4-((7,7-difluoro-9-isopropyl-5-methyl-6-oxo-6,7,8,9-tetrahydro-5H-pyrimido[4,5-b][1,4]diazepin-2-yl)amino)-N-(3-((1-(2-(2,6-dioxopiperidin-3-yl)-1,3-dioxoisoindolin-4-yl)piperidin-4-yl)(methyl)amino)cyclohexyl)-3-methoxybenzamide], the “Activity: ratio of the luminescense value of each Exemplary Compound treatment group to DMSO treatment group” value (shortened to “Activity: ratio”) was “+ (+<0.7)”.
COc1cc(C(=O)NN2CCN(C3CCN(c4ccc5c(c4)C(=O)N(C4CCC(=O)NC4=O)C5=O)CC3(F)F)CC2)ccc1Nc1ncc2c(n1)N(C(C)C)CC(F)(F)C(=O)N2C (stereo not drawn) [Compound 168, 4-((7,7-difluoro-9-isopropyl-5-methyl-6-oxo-6,7,8,9-tetrahydro-5H-pyrimido[4,5-b][1,4]diazepin-2-yl)amino)-N-(4-(1-(2-(2,6-dioxopiperidin-3-yl)-1,3-dioxoisoindolin-5-yl)-3,3-difluoropiperidin-4-yl)piperazin-1-yl)-3-methoxybenzamide] was tested, and the “Activity: ratio” value was “++ (++<0.6)”.
With COc1cc(C(=O)NC2CCN(C(=O)CC[C@@H]3CN(Cc4cccc5c4C(=O)N(C4CCC(=O)NC4=O)C5=O)CCO3)CC2)ccc1Nc1ncc2c(n1)N(C1CCCC1)CC(F)(F)C(=O)N2C (stereo partly drawn) [Compound 173, 4-((9-cyclopentyl-7,7-difluoro-5-methyl-6-oxo-6,7,8,9-tetrahydro-5H-pyrimido[4,5-b][1,4]diazepin-2-yl)amino)-N-(1-(3-((2R)-4-((2-(2,6-dioxopiperidin-3-yl)-1,3-dioxoisoindolin-4-yl)methyl)morpholin-2-yl)propanoyl)piperidin-4-yl)-3-methoxybenzamide] the “Activity: ratio” value was “+ (+<0.7)”.
With COc1cc(C(=O)NC2CCN(C(=O)CC[C@H]3CN(Cc4cccc5c4C(=O)N(C4CCC(=O)NC4=O)C5=O)CCO3)CC2)ccc1Nc1ncc2c(n1)N(C1CCCC1)CC(F)(F)C(=O)N2C (stereo partly drawn) [Compound 174, 4-((9-cyclopentyl-7,7-difluoro-5-methyl-6-oxo-6,7,8,9-tetrahydro-5H-pyrimido[4,5-b][1,4]diazepin-2-yl)amino)-N-(1-(3-((2S)-4-((2-(2,6-dioxopiperidin-3-yl)-1,3-dioxoisoindolin-4-yl)methyl)morpholin-2-yl)propanoyl)piperidin-4-yl)-3-methoxybenzamide] the “Activity: ratio” value was “++ (++<0.6)”.
In the case of COc1cc(C(=O)NC2CCN(C(=O)CCC#Cc3cccc4c3C(=O)N(C3CCC(=O)NC3=O)C4=O)CC2)ccc1Nc1ncc2c(n1)N(C1CCCC1)CC(F)(F)C(=O)N2C (stereo not drawn) [Compound 179, 4-((9-cyclopentyl-7,7-difluoro-5-methyl-6-oxo-6,7,8,9-tetrahydro-5H-pyrimido[4,5-b][1,4]diazepin-2-yl)amino)-N-(1-(5-(2-(2,6-dioxopiperidin-3-yl)-1,3-dioxoisoindolin-4-yl)pent-4-ynoyl)piperidin-4-yl)-3-methoxybenzamide], the “Activity: ratio” value is reported as “++ (++<0.6)”.
COc1cc(C(=O)NC2CCN(C(=O)CCCC#Cc3cccc4c3C(=O)N(C3CCC(=O)NC3=O)C4=O)CC2)ccc1Nc1ncc2c(n1)N(C1CCCC1)CC(F)(F)C(=O)N2C (stereo not drawn) [Compound 180, 4-((9-cyclopentyl-7,7-difluoro-5-methyl-6-oxo-6,7,8,9-tetrahydro-5H-pyrimido[4,5-b][1,4]diazepin-2-yl)amino)-N-(1-(6-(2-(2,6-dioxopiperidin-3-yl)-1,3-dioxoisoindolin-4-yl)hex-5-ynoyl)piperidin-4-yl)-3-methoxybenzamide] was tested, and the “Activity: ratio” value was “++ (++<0.6)”.
COc1cc(C(=O)N2CCN(CCCNc3cccc4c3C(=O)N(C3CCC(=O)NC3=O)C4=O)CC2)c(F)cc1Nc1ncc2c(n1)N(C1CCCC1)CC(F)(F)C(=O)N2C (stereo not drawn) [Compound 183, 4-((3-(4-(4-((9-cyclopentyl-7,7-difluoro-5-methyl-6-oxo-6,7,8,9-tetrahydro-5H-pyrimido[4,5-b][1,4]diazepin-2-yl)amino)-2-fluoro-5-methoxybenzoyl)piperazin-1-yl)propyl)amino)-2-(2,6-dioxopiperidin-3-yl)isoindoline-1,3-dione] was tested, and the “Activity: ratio” value was “+ (+<0.7)”.
For COc1cc(C(=O)N2CCN(CCCCNc3cccc4c3C(=O)N(C3CCC(=O)NC3=O)C4=O)CC2)c(F)cc1Nc1ncc2c(n1)N(C1CCCC1)CC(F)(F)C(=O)N2C (stereo not drawn) [Compound 184, 4-((4-(4-(4-((9-cyclopentyl-7,7-difluoro-5-methyl-6-oxo-6,7,8,9-tetrahydro-5H-pyrimido[4,5-b][1,4]diazepin-2-yl)amino)-2-fluoro-5-methoxybenzoyl)piperazin-1-yl)butyl)amino)-2-(2,6-dioxopiperidin-3-yl)isoindoline-1,3-dione], the “Activity: ratio” value was “+ (+<0.7)”.
In the case of COc1cc(C(=O)N2CCN(CCCNc3ccc4c(c3)C(=O)N(C3CCC(=O)NC3=O)C4=O)CC2)c(F)cc1Nc1ncc2c(n1)N(C1CCCC1)CC(F)(F)C(=O)N2C (stereo not drawn) [Compound 186, 5-((3-(4-(4-((9-cyclopentyl-7,7-difluoro-5-methyl-6-oxo-6,7,8,9-tetrahydro-5H-pyrimido[4,5-b][1,4]diazepin-2-yl)amino)-2-fluoro-5-methoxybenzoyl)piperazin-1-yl)propyl)amino)-2-(2,6-dioxopiperidin-3-yl)isoindoline-1,3-dione], the “Activity: ratio” value is reported as “++ (++<0.6)”.
With COc1cc(C(=O)N2CCN(CCCCNc3ccc4c(c3)C(=O)N(C3CCC(=O)NC3=O)C4=O)CC2)c(F)cc1Nc1ncc2c(n1)N(C1CCCC1)CC(F)(F)C(=O)N2C (stereo not drawn) [Compound 187, 5-((4-(4-(4-((9-cyclopentyl-7,7-difluoro-5-methyl-6-oxo-6,7,8,9-tetrahydro-5H-pyrimido[4,5-b][1,4]diazepin-2-yl)amino)-2-fluoro-5-methoxybenzoyl)piperazin-1-yl)butyl)amino)-2-(2,6-dioxopiperidin-3-yl)isoindoline-1,3-dione] the “Activity: ratio” value was “+ (+<0.7)”.
For COc1cc(C(=O)N2CCC(N3CCN(CCOCCNc4cccc5c4C(=O)N(C4CCC(=O)NC4=O)C5=O)CC3)CC2)c(F)cc1Nc1ncc2c(n1)N(C1CCCC1)CC(F)(F)C(=O)N2C (stereo not drawn) [Compound 189, 4-((2-(2-(4-(1-(4-((9-cyclopentyl-7,7-difluoro-5-methyl-6-oxo-6,7,8,9-tetrahydro-5H-pyrimido[4,5-b][1,4]diazepin-2-yl)amino)-2-fluoro-5-methoxybenzoyl)piperidin-4-yl)piperazin-1-yl)ethoxy)ethyl)amino)-2-(2,6-dioxopiperidin-3-yl)isoindoline-1,3-dione], the “Activity: ratio” value was “++ (++<0.6)”.
COc1cc(C(=O)N2CCC(N3CCN(CCOCCNc4ccc5c(c4)C(=O)N(C4CCC(=O)NC4=O)C5=O)CC3)CC2)c(F)cc1Nc1ncc2c(n1)N(C1CCCC1)CC(F)(F)C(=O)N2C (stereo not drawn) [Compound 191, 5-((2-(2-(4-(1-(4-((9-cyclopentyl-7,7-difluoro-5-methyl-6-oxo-6,7,8,9-tetrahydro-5H-pyrimido[4,5-b][1,4]diazepin-2-yl)amino)-2-fluoro-5-methoxybenzoyl)piperidin-4-yl)piperazin-1-yl)ethoxy)ethyl)amino)-2-(2,6-dioxopiperidin-3-yl)isoindoline-1,3-dione] was tested, and the “Activity: ratio” value was “++ (++<0.6)”.
In the case of COc1cc(C(=O)N2CCC(N3CCN(CCOCCCNc4ccc5c(c4)C(=O)N(C4CCC(=O)NC4=O)C5=O)CC3)CC2)c(F)cc1Nc1ncc2c(n1)N(C1CCCC1)CC(F)(F)C(=O)N2C (stereo not drawn) [Compound 192, 5-((3-(2-(4-(1-(4-((9-cyclopentyl-7,7-difluoro-5-methyl-6-oxo-6,7,8,9-tetrahydro-5H-pyrimido[4,5-b][1,4]diazepin-2-yl)amino)-2-fluoro-5-methoxybenzoyl)piperidin-4-yl)piperazin-1-yl)ethoxy)propyl)amino)-2-(2,6-dioxopiperidin-3-yl)isoindoline-1,3-dione], the “Activity: ratio” value is reported as “++ (++<0.6)”.
In the case of COc1cc(C(=O)NC2CCC(N3CCN(CCOCCNc4ccc5c(c4)C(=O)N(C4CCC(=O)NC4=O)C5=O)CC3)CC2)c(F)cc1Nc1ncc2c(n1)N(C1CCCC1)CC(F)(F)C(=O)N2C (stereo not drawn) [Compound 193, 4-((9-cyclopentyl-7,7-difluoro-5-methyl-6-oxo-6,7,8,9-tetrahydro-5H-pyrimido[4,5-b][1,4]diazepin-2-yl)amino)-N-((1r,4r)-4-(4-(2-(2-((2-(2,6-dioxopiperidin-3-yl)-1,3-dioxoisoindolin-5-yl)amino)ethoxy)ethyl)piperazin-1-yl)cyclohexyl)-2-fluoro-5-methoxybenzamide], the “Activity: ratio” value is reported as “++ (++<0.6)”.
In the case of COc1cc(C(=O)N[C@H]2CC[C@H](N3CCN(CCNc4cccc5c4C(=O)N(C4CCC(=O)NC4=O)C5=O)CC3)CC2)c(F)cc1Nc1ncc2c(n1)N(C1CCCC1)CC(F)(F)C(=O)N2C (stereo partly drawn) [Compound 196, 4-((9-cyclopentyl-7,7-difluoro-5-methyl-6-oxo-6,7,8,9-tetrahydro-5H-pyrimido[4,5-b][1,4]diazepin-2-yl)amino)-N-((1r,4r)-4-(4-(2-((2-(2,6-dioxopiperidin-3-yl)-1,3-dioxoisoindolin-4-yl)amino)ethyl)piperazin-1-yl)cyclohexyl)-2-fluoro-5-methoxybenzamide], the “Activity: ratio” value is reported as “++ (++<0.6)”.
